Results taken from ChEMBL document CHEMBL4673375, “Discovery of a series of 1H-pyrrolo[2,3-b]pyridine compounds as potent TNIK inhibitors” (Bioorg Med Chem Lett, 2021).
pIC50: −log10 of the molar value. Activity calls are given as the source filed them. The rule behind the calls is not given here.

What was measured:
[1] = molecular target: T1, TRAF2 and NCK-interacting protein kinase (Homo sapiens, UniProt Q9UKE5); assay: Inhibition of TNIK in human Jurkat cells assessed as reduction in PMA/anti-CD3 antibody-induced IL2 level incubated for 24 hrs by ELISA; type: cell-based; conditions: dose 1-10 µM
Target sequence in this assay (Q9UKE5 whole entry, looked up): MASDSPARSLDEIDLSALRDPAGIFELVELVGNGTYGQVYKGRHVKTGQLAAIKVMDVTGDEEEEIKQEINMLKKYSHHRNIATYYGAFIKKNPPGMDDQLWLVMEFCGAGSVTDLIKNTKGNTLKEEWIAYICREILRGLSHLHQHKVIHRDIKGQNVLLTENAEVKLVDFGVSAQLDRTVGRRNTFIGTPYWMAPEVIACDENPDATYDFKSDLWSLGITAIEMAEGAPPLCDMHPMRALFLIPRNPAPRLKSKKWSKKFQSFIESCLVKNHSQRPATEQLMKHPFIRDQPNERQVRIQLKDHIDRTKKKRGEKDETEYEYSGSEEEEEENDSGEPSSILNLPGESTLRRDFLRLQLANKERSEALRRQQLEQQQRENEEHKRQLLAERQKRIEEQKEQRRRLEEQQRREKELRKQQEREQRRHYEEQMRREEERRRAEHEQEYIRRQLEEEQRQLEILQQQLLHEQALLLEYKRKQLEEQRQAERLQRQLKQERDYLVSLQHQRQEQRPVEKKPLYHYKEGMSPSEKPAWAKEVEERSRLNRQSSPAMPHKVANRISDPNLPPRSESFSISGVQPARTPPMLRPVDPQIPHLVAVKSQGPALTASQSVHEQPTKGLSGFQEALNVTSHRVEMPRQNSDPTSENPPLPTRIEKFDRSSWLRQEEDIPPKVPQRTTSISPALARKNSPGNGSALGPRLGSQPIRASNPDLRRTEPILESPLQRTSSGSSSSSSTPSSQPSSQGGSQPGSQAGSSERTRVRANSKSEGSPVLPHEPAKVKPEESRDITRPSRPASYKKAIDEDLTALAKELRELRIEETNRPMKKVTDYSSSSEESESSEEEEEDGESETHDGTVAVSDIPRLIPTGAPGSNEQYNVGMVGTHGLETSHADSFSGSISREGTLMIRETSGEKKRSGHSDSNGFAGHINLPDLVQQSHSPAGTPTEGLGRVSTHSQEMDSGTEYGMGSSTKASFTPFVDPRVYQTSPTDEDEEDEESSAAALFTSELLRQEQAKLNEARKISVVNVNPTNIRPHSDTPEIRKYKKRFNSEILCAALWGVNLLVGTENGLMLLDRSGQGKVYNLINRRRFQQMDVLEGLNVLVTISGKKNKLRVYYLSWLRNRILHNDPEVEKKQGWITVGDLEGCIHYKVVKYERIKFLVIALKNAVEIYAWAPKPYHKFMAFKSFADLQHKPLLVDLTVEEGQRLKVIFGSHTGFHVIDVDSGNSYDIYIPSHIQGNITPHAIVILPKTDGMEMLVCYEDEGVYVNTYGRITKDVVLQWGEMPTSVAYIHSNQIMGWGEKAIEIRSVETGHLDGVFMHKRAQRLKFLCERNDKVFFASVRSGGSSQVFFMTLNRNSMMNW

[2] = molecular target: T1, TRAF2 and NCK-interacting protein kinase; assay: Inhibition of TNIK (unknown origin)
Target sequence in this assay (Q9UKE5 whole entry): as the sequence (Q9UKE5 whole entry, looked up) above

[3] = molecular target: T1, TRAF2 and NCK-interacting protein kinase; assay: Inhibition of TNIK in PMA/anti-CD3 antibody-stimulated human Jurkat cells assessed as IL2 level at 10 uM incubated for 24 hrs by ELISA; type: cell-based
Target sequence in this assay (Q9UKE5 whole entry, looked up): as above

[4] = molecular target: T1, TRAF2 and NCK-interacting protein kinase; assay: Inhibition of TNIK in human Jurkat cells assessed as reduction in PMA/anti-CD3 antibody-induced IL2 secretion at 1 uM incubated for 24 hrs by ELISA; type: cell-based
Target sequence in this assay (Q9UKE5 whole entry, looked up): as above

pIC50 [2]	SMILES	further results
9.37	CN1CCN(Cc2ccc(-c3cnc4[nH]cc(-c5cc(C#N)c(Cl)c(NS(C)(=O)=O)c5)c4c3)cc2)CC1	inhibition [1]: Dose-dependent effect
9.66	CN(C)C1CCN(C(=O)c2cccc(-c3cnc4[nH]cc(-c5cc(C#N)cc(NS(C)(=O)=O)c5)c4c3)c2)C1 (stereo not drawn)	–
9.36	CN1CCN(Cc2ccc(-c3cnc4[nH]cc(-c5ccc6[nH]ncc6c5)c4c3)cc2)CC1	–
7.74	CN1CCN(Cc2ccc(-c3cnc4[nH]cc(-c5ccc(NS(C)(=O)=O)cc5)c4c3)cc2)CC1	–
8.10	CN1CCN(Cc2ccc(-c3cnc4[nH]cc(-c5cnc6[nH]ncc6c5)c4c3)cc2)CC1	–
9.17	CN1CCC(n2cc(-c3cnc4[nH]cc(-c5cc(C#N)c(Cl)c(NS(C)(=O)=O)c5)c4c3)cn2)CC1	inhibition [1]: Dose-dependent effect; Activity [3]: < 25 pg/mL
7.92	CC(=O)Nc1cccc(-c2c[nH]c3ncc(-c4ccc(CN5CCN(C)CC5)cc4)cc23)c1	–
7.85	CN1CCN(Cc2ccc(-c3cnc4[nH]cc(-c5ccccc5)c4c3)cc2)CC1	–
9.68	CN1CCN(C(=O)c2ccc(-c3cnc4[nH]cc(-c5cc(C#N)cc(NS(C)(=O)=O)c5)c4c3)cc2)CC1	–
7.85	CN1CCN(Cc2ccc(-c3cnc4[nH]cc(-c5ccc(Cl)cc5)c4c3)cc2)CC1	–
9.33	CC(C)(C(=O)O)c1ccc(-c2cnc3[nH]cc(-c4cc(C#N)cc(NS(C)(=O)=O)c4)c3c2)cc1	inhibition [1]: Dose-dependent effect
8.42	CN1CCN(Cc2ccc(-c3cnc4[nH]cc(-c5ccc6[nH]cnc6c5)c4c3)cc2)CC1	–
7.72	CN1CCN(Cc2ccc(-c3cnc4[nH]cc(-c5ccc(F)cc5)c4c3)cc2)CC1	–
8.28	CN1CCN(Cc2ccc(-c3cnc4[nH]cc(-c5ccc6[nH]ccc6c5)c4c3)cc2)CC1	–
7.57	CNC(=O)c1cccc(-c2c[nH]c3ncc(-c4ccc(CN5CCN(C)CC5)cc4)cc23)c1	–
9.66	CS(=O)(=O)Nc1cc(C#N)cc(-c2c[nH]c3ncc(-c4cccc(C(=O)N5CCCCC5)c4)cc23)c1	–

pIC50 [2]	SMILES	further results
7.51	CN1CCN(Cc2ccc(-c3cnc4[nH]cc(-c5cccc6ccccc56)c4c3)cc2)CC1	–
9.48	CC(C)(Oc1ccc(-c2cnc3[nH]cc(-c4cc(C#N)cc(NS(C)(=O)=O)c4)c3c2)cc1)C(=O)O	inhibition [1]: Dose-dependent effect
9.52	CNC(=O)c1cccc(-c2cnc3[nH]cc(-c4cc(C#N)c(Cl)c(NS(C)(=O)=O)c4)c3c2)c1	–
9.04	CN1CCN(Cc2ccc(-c3cnc4[nH]cc(-c5cccc(C#N)c5)c4c3)cc2)CC1	–
9.74	CNC(=O)c1cccc(-c2cnc3[nH]cc(-c4cc(C#N)cc(NS(C)(=O)=O)c4)c3c2)c1	–
9.60	CN1CCN(C(=O)c2cccc(-c3cnc4[nH]cc(-c5cc(C#N)cc(NS(C)(=O)=O)c5)c4c3)c2)CC1	–
9.64	CN1CCN(Cc2ccc(-c3cnc4[nH]cc(-c5cc(C#N)c6[nH]ncc6c5)c4c3)cc2)CC1	Activity [3]: < 25 pg/mL; inhibition [4]: inactive
8.15	CN1CCN(Cc2ccc(-c3cnc4[nH]cc(-c5cccc(NS(C)(=O)=O)c5)c4c3)cc2)CC1	–
8.04	c1ccc(-c2cnc3[nH]cc(-c4ccccc4)c3c2)cc1	–
9.72	CN1CCN(Cc2ccc(-c3cnc4[nH]cc(-c5cc(C#N)cc(NS(=O)(=O)C6CC6)c5)c4c3)cc2)CC1	inhibition [1]: Dose-dependent effect; Activity [3]: < 25 pg/mL
9.68	CS(=O)(=O)Nc1cc(C#N)cc(-c2c[nH]c3ncc(-c4cccc(C(=O)N5CCCC5)c4)cc23)c1	–
7.37	CN1CCN(Cc2ccc(-c3cnc4[nH]cc(-c5cccc(C(=O)N(C)C)c5)c4c3)cc2)CC1	–
9.92	CS(=O)(=O)Nc1cc(C#N)cc(-c2c[nH]c3ncc(-c4cccc(C(=O)NC5CC5)c4)cc23)c1	–
9.10	Cn1cc(-c2ccc(-c3cnc4[nH]cc(-c5cc(C#N)cc(NS(C)(=O)=O)c5)c4c3)cc2)cn1	–
9.89	CN1CCN(Cc2ccc(-c3cnc4[nH]cc(-c5cc(C#N)cc(NS(C)(=O)=O)c5)c4c3)cc2)CC1	inhibition [1]: Dose-dependent effect; Activity [3]: < 25 pg/mL
7.82	CN1CCN(Cc2ccc(-c3cnc4[nH]cc(-c5cccc(N)c5)c4c3)cc2)CC1	–
